One test deals with T47D cell line. Nature of the test: Cell growth assay (WST-8) in T47D cell line. Type of test: cell-based. Conditions: Homo sapiens, 96 h, WST-8, 4 days, read-out: Cell Growth Inhibition in T47D cell line IC50. As to the method:
Cell Growth Assay. The cells are seeded at certain concentration (e.g., at 1500/well) in multi-well plates overnight. Cells are subsequently treated with the compounds. A certain period of time (e.g., 4 days) after the compound treatment, 10% WST-8 reagent is added to the culture medium and incubate under certain conduction (e.g., in a CO2 incubator at 37° C. for 2.5 hours). The absorbance is measured on each sample using a microplate reader at certain wavelength (e.g., 450 nm). The relative absorbance is calculated against the vehicle control from three individually repeats.
Cell Growth Assay. The cells were seeded at 1500/well in 96 well plates overnight. One day after the seeding, they were treated with indicated doses of compounds respectively. 4 days after the compound treatment, 10% WST-8 reagent was added to the culture medium and incubate in a CO2 incubator at 37° C. for 2.5 hours. Before reading, the plate was mixed gently on an orbital shaker for one minute to ensure homogeneous distribution of color. The absorbance was measured of each sample using a microplate reader at a wavelength of 450 nm. The relative absorbance was calculated against the vehicle control from three individually repeats.
For orientation: Tetrazolium assays rely on reduction of a dye to a coloured formazan, in cell work by metabolically active cells.

Test [1] addresses T1, ER (Homo sapiens (Human), UniProt P03372). Briefly: In-cell western blot analysis (Compounds B1 to B5). The settings on record: 16 hours; read-out: ICW DC50. Type of test: cell-based. As to the method:
In-cell western blot analysis. Cells are seeded in multi-well plates (e.g., at 40,000 or 10,000 cells/well). Diluted compounds at certain concentration are added (final 0.5% DMSO) and cells are incubated for a certain period of time (e.g., 16 hours). Formaldehyde (e.g., PBS:FA=9:1) is added and followed by washing with PBS. The cells are blocked with Licor blocking buffer (Li-Cor). The relative ER percentage in treated cells were obtained by comparing the values of treated wells to those in untreated and DMSO-treated wells as 100%.
In-cell western blot analysis, a. seed cells in black-sided/clear bottom 96- or 384-well plates at 40,000 or 10,000 cells/well, overnight; b, add diluted compounds (final 0.5% DMSO), 16 hours. 16 h later, remove medium, add 100 μL or 25 µL of 3.7-4.0% formaldehyde (PBS: FA=9:1), RT 20 min, no shaking; c. wash with PBS, and permeabilized with 100 μL or 25 μL/well of 1×PBS+0.1% Triton X-100 10 minutes; d. block with 100 μL or 25 L Licor blocking buffer (Li-Cor), RT 1 h, moderate shaking; d. Add 100 μL or 25 μL of anti-ER (cs-8644, 1:500-1,000)+GAPDH (Millipore MAB374, 1:1000) in Block+0.05% Tween 20. RT 2 h, gentle shaking. Negative control: cells plus secondary antibodies (no primary antibodies); e. wash×4 with PBS+0.05-0.1% Tween 20, gentel shaking; f, anti-rabbit-680 and anti-mouse-800 (both 1:1000 in LiCor block+0.05% Tween20, RT 1 h, gentle shaking, no light. LI-COR: 0.2% to reduce background; g. wash×4 with PBS+0.05% Tween 20, gental shaking; h, add 100 μL or 25 μL of PBS to each well and read on CLX plate reader. The relative ER percentage in treated cells were obtained by comparing the values of treated wells to those in untreated and DMSO-treated wells as 100%.

The next test has as its target CRBN/DDB1 (Homo sapiens (Human), UniProt Q96SW2). Nature of the test: HTRF binding assay to CRBN/DDB1. As for the experimental part:
The binding potency was determined using HTRF assay technology (Perkin Elmer). Compounds were serially diluted in DMSO and 0.2 μL volume was transferred to white 384-well plate.
For orientation: TR-FRET usually uses a lanthanide donor and a delayed reading to cut background.

The target in another test is ERα_LBD(GST) (Homo sapiens (Human), UniProt P03372). Nature of the test: LanthaScreen TR-FRET ERα competitive binding assay. The settings on record: read-out: ERα HTRF IC50. In short, it runs like this: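 GST-tagged ERα LBD (4 nM) with Tb anti-GST (2 nM) and Fluormone ES2 Green tracer (3 nM) in nuclear receptor buffer K plus 5 mM DTT, 1% DMSO; 3-fold compound dilutions, 60 min at room temperature in the dark. TR-FRET 520/495 nm ratio vs log[ligand], sigmoidal fit for IC50; 1 μM ARV_471 as full-inhibition control.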

Another test relates to T47D cells. The settings on record: read-out: T47D Proliferation IC50; CellTiter-Glo, day 6. A general note: ATP-based viability assays read luminescence as a measure of living cells.
A further test relates to MCF-7 cells. The settings on record: read-out: MCF7 Proliferation IC50; CellTiter-Glo, day 6.
In test [2] the target is T1, ER. Nature of the test: In-cell western (ICW) ER degradation assay in T47D cells. Type of test: cell-based. Conditions: 16 hrs; for DC50: ER degradation.
The target of test [3] is T1, ER. Nature of the test: In-cell western (ICW) ER degradation assay in MCF-7 cells. Conditions: MCF7, 16 hrs; for DC50: ER degradation; for MCF7 Dmax %: maximal ER degradation. The format is cell-based.

SMILES strings stand for the structures. Like-named read-outs stand apart in the source and are kept apart here.

CRBN/DDB1, sequence (Q96SW2 whole entry): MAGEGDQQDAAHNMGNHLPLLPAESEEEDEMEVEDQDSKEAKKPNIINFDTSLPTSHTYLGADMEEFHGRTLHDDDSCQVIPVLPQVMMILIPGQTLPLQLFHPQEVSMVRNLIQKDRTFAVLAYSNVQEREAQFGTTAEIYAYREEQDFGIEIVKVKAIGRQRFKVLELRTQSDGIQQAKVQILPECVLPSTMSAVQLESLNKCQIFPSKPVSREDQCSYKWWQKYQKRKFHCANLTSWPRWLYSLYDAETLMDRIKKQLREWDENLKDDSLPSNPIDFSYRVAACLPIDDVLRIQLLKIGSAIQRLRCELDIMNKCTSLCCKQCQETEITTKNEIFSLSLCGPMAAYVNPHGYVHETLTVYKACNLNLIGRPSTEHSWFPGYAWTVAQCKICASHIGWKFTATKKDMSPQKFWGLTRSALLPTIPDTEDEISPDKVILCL
CRBN/DDB1, sequence (Q16531 whole entry partner): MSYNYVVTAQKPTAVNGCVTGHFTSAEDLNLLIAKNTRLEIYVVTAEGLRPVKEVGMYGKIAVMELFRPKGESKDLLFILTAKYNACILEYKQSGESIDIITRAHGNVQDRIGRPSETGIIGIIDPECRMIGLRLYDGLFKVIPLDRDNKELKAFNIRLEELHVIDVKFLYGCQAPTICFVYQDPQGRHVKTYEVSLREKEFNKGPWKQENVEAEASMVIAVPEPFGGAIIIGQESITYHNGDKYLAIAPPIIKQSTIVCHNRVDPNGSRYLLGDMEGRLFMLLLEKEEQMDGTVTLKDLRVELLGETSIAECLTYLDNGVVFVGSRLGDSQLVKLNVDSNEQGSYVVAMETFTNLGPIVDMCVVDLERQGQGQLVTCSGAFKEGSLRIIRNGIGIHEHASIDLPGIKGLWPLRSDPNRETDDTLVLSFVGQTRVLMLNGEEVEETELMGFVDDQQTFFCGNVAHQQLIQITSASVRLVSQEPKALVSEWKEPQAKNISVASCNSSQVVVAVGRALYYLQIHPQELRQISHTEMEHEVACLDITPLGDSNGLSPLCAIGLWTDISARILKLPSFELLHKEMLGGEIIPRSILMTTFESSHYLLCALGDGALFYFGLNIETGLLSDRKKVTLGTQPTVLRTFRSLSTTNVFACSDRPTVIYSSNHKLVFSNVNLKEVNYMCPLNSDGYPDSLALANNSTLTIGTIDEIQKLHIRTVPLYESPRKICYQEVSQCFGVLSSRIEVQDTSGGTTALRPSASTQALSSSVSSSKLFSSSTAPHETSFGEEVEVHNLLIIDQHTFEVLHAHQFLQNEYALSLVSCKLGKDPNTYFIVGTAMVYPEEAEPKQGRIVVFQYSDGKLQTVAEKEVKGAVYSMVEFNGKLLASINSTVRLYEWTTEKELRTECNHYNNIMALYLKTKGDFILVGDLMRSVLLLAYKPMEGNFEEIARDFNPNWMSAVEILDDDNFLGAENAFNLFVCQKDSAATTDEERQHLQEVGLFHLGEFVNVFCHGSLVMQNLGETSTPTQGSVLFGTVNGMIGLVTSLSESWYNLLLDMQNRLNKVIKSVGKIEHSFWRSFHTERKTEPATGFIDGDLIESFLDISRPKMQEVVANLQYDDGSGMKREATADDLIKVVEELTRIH
T1 sequence (P03372 whole entry): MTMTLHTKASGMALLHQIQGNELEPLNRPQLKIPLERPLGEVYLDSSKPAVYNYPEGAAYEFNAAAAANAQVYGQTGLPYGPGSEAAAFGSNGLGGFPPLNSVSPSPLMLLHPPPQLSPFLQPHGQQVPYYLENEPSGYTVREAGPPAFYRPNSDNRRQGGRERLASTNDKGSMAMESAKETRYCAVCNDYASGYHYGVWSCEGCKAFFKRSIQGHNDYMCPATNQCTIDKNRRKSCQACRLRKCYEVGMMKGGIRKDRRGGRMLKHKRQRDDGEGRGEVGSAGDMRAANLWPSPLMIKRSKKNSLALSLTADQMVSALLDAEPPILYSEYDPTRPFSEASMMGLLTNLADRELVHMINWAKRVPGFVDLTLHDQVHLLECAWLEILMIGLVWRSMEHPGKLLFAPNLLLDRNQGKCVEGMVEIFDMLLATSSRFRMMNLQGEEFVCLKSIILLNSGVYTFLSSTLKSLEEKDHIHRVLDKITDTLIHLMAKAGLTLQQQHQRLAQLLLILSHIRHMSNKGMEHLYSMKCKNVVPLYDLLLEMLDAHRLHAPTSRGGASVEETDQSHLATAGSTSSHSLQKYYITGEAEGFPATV
ERα_LBD(GST), sequence (P03372 311-547): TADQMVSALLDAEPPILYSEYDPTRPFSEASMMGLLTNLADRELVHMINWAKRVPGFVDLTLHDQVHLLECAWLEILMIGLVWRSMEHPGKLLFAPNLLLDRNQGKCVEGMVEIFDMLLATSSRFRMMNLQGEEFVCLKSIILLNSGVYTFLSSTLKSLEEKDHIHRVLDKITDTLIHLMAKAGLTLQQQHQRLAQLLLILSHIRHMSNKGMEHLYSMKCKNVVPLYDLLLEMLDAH

In the case of `O=C1CCC(N2C(=O)c3cc4c(cc3C2=O)CN(CC(=O)N2CCC3(CC2)CCN(c2ccc(C5c6ccc(O)cc6OCC5c5ccccc5)cc2)CC3)C4)C(=O)N1` (centres unmarked) [Compound B5, 2-(2,6-dioxopiperidin-3-yl)-6-(2-(9-(4-(7-hydroxy-3-phenylchroman-4-yl)phenyl)-3,9-diazaspiro[5.5]undecan-3-yl)-2-oxoethyl)-6,7-dihydropyrrolo[3,4-f]isoindole-1,3(2H,5H)-dione], in the test with T47D cell line, the IC50 was over 10 nM. Besides, on ER [1], the DC50 is over 100 nM.

As for `O=C1CCC(N2Cc3cc4c(cc3C2=O)OC[C@@H]2CN(CC3CC5(CCN(c6ccc(C7c8ccc(O)cc8OCC7c7ccccc7)cc6)CC5)C3)CCN42)C(=O)N1` (stereo partly drawn) [Compound B3, 3-((4aS)-3-((7-(4-(7-hydroxy-3-phenylchroman-4-yl)phenyl)-7-azaspiro[3.5]nonan-2-yl)methyl)-8-oxo-1,2,3,4,4a,5,8,10-octahydro-9H-pyrazino[1′,2′:4,5] [1,4]oxazino[2,3-f]isoindol-9-yl) piperidine-2,6-dione], the IC50 with T47D cell line is over 10 nM. Besides, the DC50 on ER [1] is over 100 nM.

For the compound `O=C1CCC(N2Cc3cc4c(cc3C2=O)OC[C@@H]2CN(CC3CCC5(CC3)CN(c3ccc([C@@H]6c7ccc(O)cc7OC[C@@H]6c6ccccc6)cc3)C5)CCN42)C(=O)N1` (stereo partly drawn) [Compound A53, 3-((S)-3-((2-(4-((3S,4R)-7-hydroxy-3-phenylchroman-4-yl)phenyl)-2-azaspiro[3.5]nonan-7-yl)methyl)-8-oxo-1,2,3,4,4a,5,8,10-octahydro-9H-pyrazino[1′,2′:4,5][1,4]oxazino[2,3-f]isoindol-9-yl)piperidine-2,6-dione], the IC50 at CRBN/DDB1 (read-out: CRBN HTRF IC50) is 500 to 5000 nM; at ERα_LBD(GST), under 5 nM; with T47D cells, 50 to 500 nM; with MCF-7 cells, 50 to 500 nM. The DC50 at ER [2] and at ER [3] was 1 to 10 nM in each case. Moreover, the “T47D Dmax %” value at ER [2] (maximal ER degradation) is given as “A (“A”; >=75%)”. Further, on ER [3], the “MCF7 Dmax %” value is “B (“B”: >50% and <75%)”.

Regarding `O=C1CCC(N2Cc3c(ccc4c3OC[C@H]3CN(CC5CC6(CCN(c7ccc(C8c9ccc(O)cc9OCC8c8ccccc8)cc7)CC6)C5)CCN43)C2=O)C(=O)N1` (some centres unmarked) [Compound B2], the IC50 in the test with T47D cell line was over 10 nM. Moreover, the DC50 at ER [1] is over 100 nM.

In the case of `O=C1CCC(N2Cc3c(ccc4c3OCC43CCN(CC4CC5(CCN(c6ccc(C7c8ccc(O)cc8OCC7c7ccccc7)cc6)CC5)C4)CC3)C2=O)C(=O)N1` (centres unmarked) [Compound B4, 3-(1′-((7-(4-(7-hydroxy-3-phenylchroman-4-yl)phenyl)-7-azaspiro[3.5]nonan-2-yl)methyl)-6-oxo-6,8-dihydro-2H,7H-spiro[furo [2,3-e]isoindole-3,4′-piperidin]-7-yl)piperidine-2,6-dione], the IC50 in the test with T47D cell line was over 10 nM. Also, on ER [1], the DC50 was over 100 nM.

As to `O=C1CCC(N2Cc3cc(N4CCN(CC5CC6(CCN(c7ccc([C@H]8c9ccc(O)cc9OC[C@H]8c8ccccc8)cn7)CC6)C5)CC4)ccc3C2=O)C(=O)N1` (stereo partly drawn) [Compound A98, (R)-3-(5-(4-((7-(5-((3R,4S)-7-hydroxy-3-3-phenylchroman-4-yl)pyridin-2-yl)-7-azaspiro[3.5]nonan-2-yl)methyl)piperazin-1-yl)-1-oxoisoindolin-2-yl)piperidine-2,6-dione], the IC50 was 50 to 500 nM at CRBN/DDB1 (read-out: CRBN HTRF IC50), under 50 nM in the test on T47D cells and under 50 nM with MCF-7 cells. The DC50 on ER [2] and at ER [3] was under 1 nM each time. Moreover, the Dmax (usually the greatest extent of degradation seen) was at least 75% at ER [2] (maximal ER degradation) and at least 75% on ER [3] (MCF7, maximal ER degradation).

For the compound `O=C1CCC(N2Cc3c(ccc4c3OC[C@H]3CN(CC5CCN(c6ccc(C7c8ccc(O)cc8OCC7c7ccccc7)cc6)CC5)CCN43)C2=O)C(=O)N1` (stereo partly drawn) [Compound B1, 3-((5aR)-7-((1-(4-(7-hydroxy-3-phenylchroman-4-yl)phenyl)piperidin-4-yl)methyl)-1-oxo-1,3,5,5a,6,7,8,9-octahydro-2H-pyrazino[1′,2′:4,5][1,4]oxazino[2,3-e]isoindol-2-yl) piperidine-2,6-dione], the IC50 in the test on T47D cell line was over 10 nM. Further, on ER [1], the DC50 was over 100 nM.

For the compound `O=C1CCC(N2Cc3cc(N4CCN(CC5CC6(CCN(c7ccc([C@@H]8c9ccc(O)cc9OC[C@@H]8c8ccccc8)cn7)CC6)C5)CC4)ccc3C2=O)C(=O)N1` (single isomer, unassigned) [Compound A92], the figures for the IC50 at CRBN/DDB1 (CRBN HTRF IC50 (nM)), in the test on T47D cells and with MCF-7 cells were over 5000 nM, under 50 nM and under 50 nM, respectively. Besides, the DC50 on ER [2] and on ER [3] was under 1 nM each time. Also, on ER [2] (maximal ER degradation), the “T47D Dmax %” value was “B (“B”: >50% and <75%)”. For the same compound, on ER [3], the “MCF7 Dmax %” value is “B (“B”: >50% and <75%)”.

The values above are taken from patent US20260000676A1, “CHROMAN DERIVATIVES AS ESTROGEN RECEPTOR DEGRADERS” (THE REGENTS OF THE UNIVERSITY OF MICHIGAN, priority 2022, published 2026).
